We go through 7 compounds from publication PMC3567251 (Biochemistry, 2012).

Test [1] deals with PfADA. Conditions: substrate; ref Ting et al. [13]; cited from earlier work.
Test [2] concerns human ADA. Conditions: cited from earlier work.
The target of test [3] is T1, PaMTADA (Pseudomonas aeruginosa, UniProt Q9HZ64). The format is biochemical.
Test [4] deals with human ADA. Conditions: cited from earlier work; for inhibition of human ADA: result in words.
Test [5] concerns the target PfADA. Conditions: cited from earlier work.
Test [6] has as its system PfADA. Kind of test: Inhibition of PfADA. The test is classed as biochemical, Plasmodium falciparum. To be noted: times weaker than CF.
The target in test [7] is T1, PaMTADA. The format is biochemical. Conditions: times weaker than MTDCF.
In test [8] the target is T2, cellular PaMTADA activity (Pseudomonas aeruginosa, UniProt Q9HZ64).
T2 sequence (Q9HZ64 1-444): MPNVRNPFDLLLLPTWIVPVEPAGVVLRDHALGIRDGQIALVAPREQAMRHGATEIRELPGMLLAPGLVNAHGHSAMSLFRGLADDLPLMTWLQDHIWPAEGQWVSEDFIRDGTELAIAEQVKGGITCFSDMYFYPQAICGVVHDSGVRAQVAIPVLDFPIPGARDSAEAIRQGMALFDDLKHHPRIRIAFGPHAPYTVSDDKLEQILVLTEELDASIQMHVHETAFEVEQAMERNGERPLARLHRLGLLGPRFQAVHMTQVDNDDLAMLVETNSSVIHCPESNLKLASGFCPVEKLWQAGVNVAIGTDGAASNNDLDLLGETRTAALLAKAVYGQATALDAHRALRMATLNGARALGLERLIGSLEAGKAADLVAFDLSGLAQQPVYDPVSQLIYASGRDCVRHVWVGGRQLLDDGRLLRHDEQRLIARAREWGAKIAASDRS
The test is described as follows: Inhibition of cellular PaMTADA. The format is cell-based, P. aeruginosa PAO1.

The next test relates to P. aeruginosa PAO1. Kind of test: Growth of P. aeruginosa PAO1 with or without MTCF. To be noted: up to 1 μM, 36 hours, 37 °C. The format is cell-based.
The target in test [9] is T3, PaMTADA (Pseudomonas aeruginosa, UniProt Q9HZ64).
T3 sequence (Q9HZ64 1-444): T2 sequence (Q9HZ64 1-444)
The test is described as follows: Inhibition of PaMTADA activity in cell lysates. To be noted: cell lysate, 50 nM inhibitor. The test is classed as biochemical, P. aeruginosa PAO1.

Test [10] concerns PaMTADA. The test is classed as biochemical, Pseudomonas aeruginosa. Conditions: times higher than PfADA.
For the next test, the system named is bovine ADA. To be noted: result in words; cited from earlier work.
[11] abbreviates: substrate, ref Tyler et al. [16].
The mark [12] stands for this setting: equilibrium dissociation constant.
[13] abbreviates: read-out: Ki* from slow-onset inhibition, Ki* values.

“And” between values parts separate entries of the source, which are not always exact repeats. Identical values can stand only once. “Also recorded” adds a separate entry of the source. Like-named read-outs stand apart in the source and are kept apart here.

The term kcat denotes the number of substrate molecules converted per active site and unit of time at saturation. Usually Km stands for the concentration of substrate that gives half-maximal velocity. For the compound `Nc1ncnc2c1ncn2[C@@H]1O[C@H](CO)[C@@H](O)[C@H]1O` [adenosine], the kcat was 1.8 ± 0.1 s⁻¹ in the test on PfADA [1]; 36 ± 1 s⁻¹ with human ADA [2] (setting [11]); 17 ± 1 s⁻¹ at PaMTADA [3] (substrate, 25 °C, pH 7.4). The Km in the test on human ADA [2] (setting [11]) was 22 ± 3 µM.
Broadly, the Ki is a measure of affinity in units of concentration, obtained from inhibition or displacement. Turning to `CCCSC[C@H]1O[C@@H](n2cnc3c2N=CNC[C@H]3O)C[C@@H]1O` [PrTDCF, 5′-propylthio-2′-deoxycoformycin], the Ki is greater than 10000 nM at human ADA [4] (setting [12]) and 12 ± 1 nM on PfADA [5] (setting [12]). Also, the “binding affinity for PfADA relative to CF” value in the test on PfADA [6] was 150 times. Moreover, the “binding to PaMTADA relative to MTDCF” value at PaMTADA [7] is given as 8 times.
Turning to `CSC[C@H]1O[C@@H](n2cnc3c2N=CNC[C@H]3O)C[C@@H]1O` [MTDCF, 5′-methylthio-2′-deoxycoformycin], the results for the Ki on human ADA [4] (setting [12]) and at PfADA [5] (setting [13]) were greater than 10000 nM and 0.7 ± 0.2 nM, respectively. Moreover, the “inhibition of human ADA” value in the test with human ADA [4] is “no inhibitory effect”. Besides, in the test with PfADA [6], the “binding affinity for PfADA relative to CF” value is reported as 9 times.
As for `CSC[C@H]1O[C@@H](n2cnc3c2N=CNC[C@H]3O)[C@H](O)[C@@H]1O` [MTCF, 5′-methylthiocoformycin], the Ki is greater than 10000 nM at human ADA [4] (setting [12]) and 0.4 ± 0.1 nM on PfADA [5] (setting [13]). Besides, in the test with human ADA [4], the “inhibition of human ADA” value is recorded as “no significant inhibition; also recorded: no inhibitory effect; also recorded: no significant inhibitory effects”. Further, the PaMTADA activity result in test [8] (500 nM MTCF in LB medium plus 100 nM MTCF added to cell lysate) is recorded as “All PaMTADA activity was inhibited”. Besides, the “concentration of maximal inhibition” value in test [8] (MTCF in LB medium) came to 10 nM. Besides, the “effect on cell growth based on OD600” value in the test with P. aeruginosa PAO1 is “no effect”. Besides, the “degradation of MTA” value at PaMTADA [9] is reported as “completely blocked”.
In the case of 5′-methylthioadenosine [MTA], the Km in the test with PfADA [1] was 170 ± 20 µM; at PaMTADA [3] (substrate, 25 °C, pH 7.4), 1.5 ± 0.3 µM. In addition, the kcat is 15.0 ± 0.9 s⁻¹ with PfADA [1]; less than 0.02 s⁻¹ in the test on human ADA [2] (setting [11]); 24.6 s⁻¹ and 24.6 ± 0.8 s⁻¹ at PaMTADA [3] (substrate, 25 °C, pH 7.4). Moreover, the “use as substrate by human ADA” value with human ADA [2] (result in words) was “do not utilize”. On PaMTADA [3] (MTA over adenosine), the “catalytic efficiency (kcat/Km) for MTA relative to adenosine” value was 40 fold. In the test with PaMTADA [10], the “catalytic efficiency of PaMTADA on MTA relative to PfADA” value stood at 160 times. In addition, the “use as substrate by bovine ADA” value in the test with bovine ADA is listed as “do not utilize”.
Take `OC[C@H]1O[C@@H](n2cnc3c2N=CNC[C@H]3O)[C@H](O)[C@@H]1O` [Coformycin (CF), (2R,3R,4S,5R)-2-((R)-8-hydroxy-7,8-dihydroimidazo[4,5-d][1,3]diazepin-3(6H)-yl)-5-(hydroxymethyl)tetrahydrofuran-3,4-diol, reference compound]: the Ki is 0.11 ± 0.02 nM on human ADA [4] (setting [13]) and 0.08 ± 0.02 nM at PfADA [5] (setting [13]).
Take `O[C@@H]1CNC=Nc2c1ncn2[C@H]1C[C@H](O)[C@@H](CSc2ccccc2)O1` [PhTDCF, 5′-phenylthio-2′-deoxycoformycin]: the Ki at PfADA [5] (setting [12]) was 60 ± 10 nM.
